Measured values reported in BigSolDB 2.1.

Cc1cnc(NC(=O)C2=C(O)c3ccccc3S(=O)(=O)N2C)s1
solubility (mole fraction)
Conditions | 293.15 K | 298.15 K | 303.15 K | 308.15 K | 313.15 K
in ethanol | 4.47e-05 | 5.67e-05 | 7.52e-05 | 9.37e-05 | 0.000123
in ethyl acetate | 0.000389 | 0.000453 | 0.00053 | 0.000607 | 0.000707
